Data published in US8329940B2, “18β-glycyrrhetinic acid derivatives and synthetic method thereof” (Kaohsiung Medical University, priority 2009, dated 2012).
Where two headings read alike, the source gives them in different places.

Assays:
[1] = system: accumulation of NO2− in RAW 264.7 cells stimulated with LPS; experiment: Nitrite (NO2−) accumulation in RAW 264.7 cells stimulated with LPS (Griess reaction); assay type: cell-based, Murine; conditions: for IC50: RAW 264.7 cells stimulated with LPS, 24 h, read-out: IC50 (B) accumulation of NO2− in RAW 264.7; for % of inhibition of NO2− accumulation (in parentheses): at the highest concentration, RAW 264.7, LPS
Protocol: (§1) Nitrite is a stable metabolite of NO in the media based on Griess reaction. […] To determine whether the inhibition of NO production in RAW 264.7 cells is attributed to the decrease of iNOS protein expression, Western blotting analysis is performed. Unstimulated cells expressed very low level of iNOS protein, whereas LPS 50 ng/mL induced a large amount of iNOS protein expression. […] Thus, the blockade of iNOS transcription has a critical role as evidenced from the parallelism of the inhibition of NO production and iNOS protein expression by compound 14.

[2] = system: TNF-a formation from RAW 264.7 cells stimulated with LPS; conditions: for % of inhibition of TNF-a formation (in parentheses): at the highest concentration, RAW 264.7, LPS
Protocol: Nitric oxide (NO) in the cell medium is determined by the Griess reaction. In Western blot analysis, cells are washed with PBS twice and harvested in Laemmli sodium dodecyl sulfate (SDS) sample buffer to lyse the cells. Cell lysates are separated by 10% SDS-PAGE, and electrophoretically transferred to the poly(vinylidene difluoride) membranes. Membranes are blocked for 1 h at room temperature in TBST buffer (10 mM Tris-HCl, pH 8.0, 150 mM NaCl and 0.1% Tween 20) containing 5% nonfat milk. Membranes are washed with TBST buffer and then incubated with a monoclonal anti-iNOS antibody (1:1000 dilution) for 1 h. Following washed with TBST buffer, horseradish peroxidase-labeled anti-mouse IgG (1:10,000 dilution) is added therein at room temperature for 1 h. The blots are developed using ECL Western blotting reagents. Secretory levels of TNF-a in culture supernatants are determined by the EIA kit according to the procedure of manufacturer.

[3] = system: superoxide anion formation from rat neutrophils stimulated with PMA; experiment: Superoxide anion formation in rat neutrophils stimulated by PMA; assay type: cell-based; conditions: for % of inhibition of superoxide anion formation, PMA (in parentheses): at the highest concentration, rat neutrophils; for IC50: rat neutrophils stimulated with PMA
[4] = system: superoxide anion formation from rat neutrophils stimulated with fMLP/CB; experiment: Superoxide anion formation in rat neutrophils stimulated by fMLP/CB; assay type: cell-based; conditions: for % of inhibition of superoxide anion formation, fMLP/CB (in parentheses): at the highest concentration, rat neutrophils; for IC50: rat neutrophils stimulated with fMLP (0.3 μM)/CB (5 μg/mL), 30 min
Protocol: Compound stock solution (30 mM in DMSO) is prepared and stored at −25° C. before experiment. In the superoxide anion generation experiments, neutrophils isolated from the peripheral blood of the rats are stimulated with formyl-Met-Leu-Phe (fMLP, 0.3 μM)/Cytochalasin B (CB, 5 μg/mL) for 30 min in the presence of cytochrome c, and the superoxide anion generation is measured in terms of superoxide dismutase-inhibitable cytochrome c reduction.

[5] = target: xanthine oxidase (XO); experiment: Xanthine oxidase activity assay; assay type: biochemical; conditions: xanthine as substrate, 25° C., 295 nm
Protocol: (§2) The xanthine oxidase activity with xanthine as the substrate is measured at 25° C., according to the protocol of Kong and associates (Cell Mol. […] After preincubation at 25° C. for 15 min, the reaction is initiated by addition of 60 μL of substrate solution (150 μM xanthine in the same buffer). The reaction is monitored at 295 nm. The xanthine oxidase activity is expressed as micromoles of uric acid per minute.

[6] = system: iNOS protein expression; experiment: iNOS protein expression in LPS-stimulated RAW 264.7 cells (Western blot); assay type: cell-based, Murine; conditions: RAW 264.7, LPS 50 ng/mL
Protocol: as §1

[7] = system: plasmid pBR322DNA; experiment: Inhibition of oxidative DNA damage by O2− from xanthine/xanthine oxidase (agarose gel electrophoresis); conditions: 500 μM compound, xanthine (2 mM)/xanthine oxidase (0.7 U/mL), 20 min, 37° C.
Protocol: A mixture of the plasmid pBR322DNA ([…]) and xanthine (2 mM)/xanthine oxidase (0.7 U/mL) in 10 mM phosphate buffer (pH 7.4) is incubated for 20 min with 500 μlM of superoxide dismutase, quercetin, or compounds 2, 6, 7, 13, 14, and 20 in a total volume of 20 μL at 37° C., respectively. After incubating for 20 min, a 15 μL aliquot of mixture is loaded into 1.0% agarose gel containing ethidium bromide (0.05 μg/mL) in Tris-acetate-ethylenediaminetetraacetic acid (EDTA) buffer. The electrophoresis is carried out for 30 min at 100 V. Then the gels are illuminated with UV light and photographed.
ROS have been known to damage many biological macromolecules, for instance, with DNA being a significant target. The ability of 18β-GA derivatives to inhibit the DNA damage caused by O2^− (generated by xanthine (XA)/XO) is studied in vitro by agarose gel electrophoresis. […] For determined the antioxidant activities of these compounds, the radical scavenging activities and XO inhibitory activities of these compounds are analyzed.

[8] = target: xanthine oxidase (XO) (Homo sapiens, UniProt P47989); experiment: Xanthine oxidase activity assay; assay type: biochemical; conditions: xanthine as substrate, 25° C.
Protocol: as §2

[9] = read-out: IC50 (C) TNF-a formation in RAW 264.7, RAW 264.7 cells stimulated with LPS
[10] = Mus musculus, RAW264.7, read-out: IC50 (C) TNF-a formation in RAW 264.7

Sequence of xanthine oxidase (XO) (P47989 whole entry, species assumed): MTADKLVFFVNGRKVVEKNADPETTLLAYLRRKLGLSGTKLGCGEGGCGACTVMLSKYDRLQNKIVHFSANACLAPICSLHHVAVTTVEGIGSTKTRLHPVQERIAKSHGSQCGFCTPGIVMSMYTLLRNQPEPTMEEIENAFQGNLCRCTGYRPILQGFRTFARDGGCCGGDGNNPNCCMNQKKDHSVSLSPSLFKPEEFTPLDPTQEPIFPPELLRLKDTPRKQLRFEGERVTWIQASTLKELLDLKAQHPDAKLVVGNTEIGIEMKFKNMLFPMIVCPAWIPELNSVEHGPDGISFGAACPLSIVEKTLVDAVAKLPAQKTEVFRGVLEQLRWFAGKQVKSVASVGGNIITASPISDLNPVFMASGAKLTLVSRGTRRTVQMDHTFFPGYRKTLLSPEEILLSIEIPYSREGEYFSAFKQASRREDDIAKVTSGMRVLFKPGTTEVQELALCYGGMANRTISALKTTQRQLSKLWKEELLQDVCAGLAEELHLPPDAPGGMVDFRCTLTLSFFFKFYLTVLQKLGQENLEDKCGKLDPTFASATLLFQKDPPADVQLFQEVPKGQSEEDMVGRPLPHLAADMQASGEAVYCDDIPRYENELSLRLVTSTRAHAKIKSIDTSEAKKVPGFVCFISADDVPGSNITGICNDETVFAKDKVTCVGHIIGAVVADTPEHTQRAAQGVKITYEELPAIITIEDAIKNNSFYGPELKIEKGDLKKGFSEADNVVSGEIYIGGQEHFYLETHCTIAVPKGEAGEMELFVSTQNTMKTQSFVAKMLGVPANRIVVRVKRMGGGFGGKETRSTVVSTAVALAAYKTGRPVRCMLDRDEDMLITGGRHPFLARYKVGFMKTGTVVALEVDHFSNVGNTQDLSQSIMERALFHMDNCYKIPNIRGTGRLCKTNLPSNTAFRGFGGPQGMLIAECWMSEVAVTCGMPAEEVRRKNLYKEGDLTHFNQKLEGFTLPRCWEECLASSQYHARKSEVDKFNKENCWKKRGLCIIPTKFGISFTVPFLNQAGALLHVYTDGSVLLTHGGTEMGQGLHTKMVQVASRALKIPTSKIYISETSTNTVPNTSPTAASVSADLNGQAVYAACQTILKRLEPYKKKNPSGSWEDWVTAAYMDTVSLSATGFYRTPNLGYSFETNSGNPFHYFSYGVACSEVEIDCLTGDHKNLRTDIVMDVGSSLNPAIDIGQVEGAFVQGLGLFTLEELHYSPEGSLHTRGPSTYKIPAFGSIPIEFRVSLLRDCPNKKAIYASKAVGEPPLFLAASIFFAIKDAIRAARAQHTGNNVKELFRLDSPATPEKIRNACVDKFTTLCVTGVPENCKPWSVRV
Sequence of xanthine oxidase (XO) (Homo sapiens, UniProt P47989) (P47989 whole entry, species assumed): as above

IC50 [1] [µM]	IC50 [2, 9] [µM]	IC50 [3] [µM]	IC50 [4] [µM]	Compound	% of inhibition of NO2− accumulation (in parentheses) [1] [%]	% of inhibition of TNF-a formation (in parentheses) [2] [%]	% of inhibition of superoxide anion formation, PMA (in parentheses) [3] [%]	% of inhibition of superoxide anion formation, fMLP/CB (in parentheses) [4] [%]	also measured
> 30	–	–	–	C=C(C)C1CCC2(C)C(C(=O)C=C3C4CC(C)(C(=O)OC)CCC4(C)CCC32C)C1(C)CCC(=O)OC (stereo not drawn) [Compound 11]	44.3 ± 10.5	–	–	–	inhibitory effect on NO accumulation in the media induced by LPS ([1]; each at 30 μM, RAW 264.7): about 40%
> 10	> 10	> 30	> 30	CC(C)NC(=O)C1(C)CCC2(C)CCC3(C)C(=CC(=O)C4C5(C)CCC(=O)OC(C)(C)C5CCC43C)C2C1 (stereo not drawn) [Compound 18]	30.0 ± 11.9	9.7 ± 4.7	48.2 ± 8.4	2.7 ± 12.5	–
–	26.1 ± 14.7	–	–	C=C(C)C1CCC2(C)C(C(=O)C=C3C4CC(C)(C(=O)OC)CCC4(C)CCC32C)C1(C)CCC(=O)O (stereo not drawn) [Compound 10]	–	–	–	–	–
–	–	–	–	C=C(C)C1CCC2(C)C(C(=O)C=C3C4CC(C)(C(=O)NC(C)C)CCC4(C)CCC32C)C1(C)CCC(=O)OC (stereo not drawn) [Compound 14]	–	–	–	–	IC50 [5]: 192 ± 2.7 µM; inhibition of iNOS protein expression [6]: significantly inhibited the iNOS protein expression; melting point: 80 to 85 °C; protective effect on oxidative DNA damage caused by O2− [7]: significant protective effects; IC50 ([3]; Neutrophil): 15.6 ± 1.7 µM; IC50 ([1]; Mus musculus, RAW264.7): 13.1 ± 5 µM
–	1.3 ± 0.4	–	–	COC(=O)C1(C)CCC2(C)CCC3(C)C(=CC(=O)C4C5(C)CCC(O)C(C)(C)C5CCC43C)C2C1 (stereo not drawn) [Compound 3]	–	–	–	–	–
> 10	> 10	> 10	> 10	C=C(C)C1CCC2(C)C(C(=O)C=C3C4CC(C)(C(=O)O)CCC4(C)CCC32C)C1(C)CCC(=O)OC (stereo not drawn) [Compound 8]	29.6 ± 10.0	21.2 ± 8.7	7.4 ± 3.1	81.9 ± 7.4	–
–	–	–	7 ± 2	C=C(C)C1CCC2(C)C(C(=O)C=C3C4CC(C)(C(=O)O)CCC4(C)CCC32C)C1(C)CCC(=O)O (stereo not drawn) [Compound 7]	–	–	–	–	inhibition of XO activity [8]: weakly inhibit; protective effect on oxidative DNA damage caused by O2− [7]: significant protective effects
–	–	–	–	C=C(C)C1CCC2(C)C(C(=O)C=C3C4CC(C)(C(=O)OCc5ccccc5)CCC4(C)CCC32C)C1(C)CCC(=O)OC (stereo not drawn) [Compound 13]	44.5 ± 4.2	–	–	–	IC50 [5]: 175 ± 0.9 µM; IC50 [2, 10]: 13.7 ± 4.3 µM; melting point: 32 to 38 °C; protective effect on oxidative DNA damage caused by O2− [7]: significant protective effects; IC50 ([3]; Neutrophil): 17 ± 1.5 µM; IC50 ([1]; Mus musculus, RAW264.7): > 30 µM; inhibition at 30 µM ([1]; Mus musculus, RAW264.7, each at 30 μM, RAW 264.7, read-out: inhibitory effect on NO accumulation in the media induced by LPS): ~40%
–	–	–	–	COC(=O)C1(C)CCC2(C)CCC3(C)C(=CC(=O)C4C5(C)CCC(=O)OC(C)(C)C5CCC43C)C2C1 (stereo not drawn) [Compound 6, 3,4 lactone 30 methyl ester]	–	–	–	–	IC50 [5]: 132 ± 2.7 µM; melting point: 166 to 171 °C; protective effect on oxidative DNA damage caused by O2− [7]: significant protective effects; IC50 ([3]; Neutrophil): 12.9 ± 1.8 µM
–	–	–	9.8 ± 5.2	C=C(C)C1CCC2(C)C(C(=O)C=C3C4CC(C)(C(=O)NC(C)C)CCC4(C)CCC32C)C1(C)CCC(=O)O (stereo not drawn) [Compound 20]	–	–	–	–	inhibition of XO activity [8]: weakly inhibit; protective effect on oxidative DNA damage caused by O2− [7]: significant protective effects
> 10	> 10	> 30	> 30	CC1(C(=O)OCc2ccccc2)CCC2(C)CCC3(C)C(=CC(=O)C4C5(C)CCC(=O)OC(C)(C)C5CCC43C)C2C1 (stereo not drawn) [Compound 16]	−2.3 ± 4.6	25.3 ± 9.9	−10.7 ± 10.2	−22.9 ± 7.6	–
> 30	> 30	> 10	> 30	C=C(C)C1CCC2(C)C(C(=O)C=C3C4CC(C)(C(=O)OC(C)C)CCC4(C)CCC32C)C1(C)CCC(=O)OC (stereo not drawn) [Compound 12]	43.0 ± 4.3	47.0 ± 1.3	28.7 ± 15.9	−2.5 ± 11.9	inhibitory effect on NO accumulation in the media induced by LPS ([1]; each at 30 μM, RAW 264.7): about 40%
–	27.7 ± 7.2	–	–	C=C(C)C1CCC2(C)C(C(=O)C=C3C4CC(C)(C(=O)Nc5ccccc5)CCC4(C)CCC32C)C1(C)CCC(=O)O (stereo not drawn) [Compound 21]	–	–	–	–	–
–	2.3 ± 0.5	–	–	C=C(C)C1CCC2(C)C(C(=O)C=C3C4CC(C)(C(=O)OCc5ccccc5)CCC4(C)CCC32C)C1(C)CCC(=O)O (stereo not drawn) [Compound 17]	–	–	–	–	–
> 30	> 30	> 1	> 1	C=C(C)C1CCC2(C)C(C(=O)C=C3C4CC(C)(C(=O)O)CCC4(C)CCC32C)C1(C)CCC(=O)OC(C)C (stereo not drawn) [Compound 9]	39.8 ± 5.4	38.4 ± 14.6	−7.0 ± 3.0	48.8 ± 6.6	–
1.5 ± 0.2	–	–	–	CC(=N)NCc1cccc(CN)c1 [Compound 1400W, N-(3-aminomethyl) benzylacetamidine, reference compound]	–	–	–	–	–
–	–	–	–	O=c1c(-c2ccc(O)cc2)coc2cc(O)cc(O)c12 [Genistein, genistein, reference compound]	–	–	–	–	IC50 [2, 10]: 26.5 ± 9.1 µM
> 30	–	–	10.3 ± 5.2	CC1(C)C(=O)CC[C@]2(C)[C@H]3C(=O)C=C4[C@@H]5C[C@@](C)(C(=O)O)CC[C@]5(C)CC[C@@]4(C)[C@]3(C)CC[C@@H]12 [Compound 2]	45.6 ± 9.1	–	–	–	inhibition of XO activity [8]: weakly inhibit; protective effect on oxidative DNA damage caused by O2− [7]: significant protective effects; inhibitory effect on NO accumulation in the media induced by LPS ([1]; each at 30 μM, RAW 264.7): about 40%
> 3	> 3	> 3	> 3	CC1(C(=O)O)CCC2(C)CCC3(C)C(=CC(=O)C4C5(C)CCC(=O)OC(C)(C)C5CCC43C)C2C1 (stereo not drawn) [Compound 5]	3.0 ± 4.2	−0.7 ± 2.7	−8.2 ± 11.8	27.4 ± 9.2	–

Compound	IC50 [1] [µM]	IC50 [2, 9] [µM]	IC50 [3] [µM]	IC50 [4] [µM]	% of inhibition of NO2− accumulation (in parentheses) [1] [%]	% of inhibition of TNF-a formation (in parentheses) [2] [%]	% of inhibition of superoxide anion formation, PMA (in parentheses) [3] [%]	% of inhibition of superoxide anion formation, fMLP/CB (in parentheses) [4] [%]	also measured
CC1(C(=O)Nc2ccccc2)CCC2(C)CCC3(C)C(=CC(=O)C4C5(C)CCC(=O)OC(C)(C)C5CCC43C)C2C1 (stereo not drawn) [Compound 19]	> 30	> 30	> 3	> 10	20.5 ± 2.7	45.2 ± 14.6	26.9 ± 3.0	−1.6 ± 4.4	–
c1ccc2c(c1)[I+]c1ccccc1-2 [DPI, reference compound]	–	–	1.8 ± 0.4	2.7 ± 2	–	–	–	–	–
C=C(C)C1CCC2(C)C(C(=O)C=C3C4CC(C)(C(=O)Nc5ccccc5)CCC4(C)CCC32C)C1(C)CCC(=O)OC (stereo not drawn) [Compound 15]	–	15.5 ± 3.2	–	–	–	–	–	–	–
